Laboratory results published in patent publication US20030073618A1, “Compounds comprising disulfide-containing peptides and nitrogenous bases, and medical uses thereof” (priority 2001, published 2003).
Where two headings read alike, the source gives them in different places. Marks after values point to notes of the source that are not given here.

Tests used:
hepatitis C virus (HCV) = experiment: Efficacy study in chronic viral hepatitis C, 74 patients (Tables 54-55)
ATP-ase/helicase = ATP-ase/helicase activity in lysate of donor lymphocyte nuclei
[1] = tested on: ATP-ase/helicase (NS3 of hepatitis C virus)
[2] = tested on: white rats with DMNA-induced liver cirrhosis; experiment: Experimental dimethylnitrosamine (DMNA)-induced liver cirrhosis in rats; assay type: in vivo
Method: The method of Jezequel, A. M. et al. was used to induce liver cirrhosis in the rats. (Dimethylnitrosamine-induced cirrhosis. Evidence for an immunological mechanism. J. […] DMNA was dissolved by normal saline. To obtain considerable cirrhosis 4 such injection cycles were sufficient. For morphologic examination after narcotized euthanasia samples of liver tissue from central and right side lobes were taken. The liver samples were fixated by mixture of formalin, alcohol and acetic acid. […] The van-Gison stained samples where collagen fibers had red color were used for the study. […] By number of pixels forming the selected objects a relative square occupied by developed collagen (connective tissue) in the liver tissue was calculated. The measurement results were statistically processed. The difference significance between mean samples using the Student criterion with significance level of p=0.05. The morphological alterations were assessed on the samples with blind marking reducing risk of aggravation of the study results. The pathologic process and agent efficacy were assessed by clinical signs (weight, appearance, ascites, motional activity, death) as well as morphologic ones after animal necropsy with following morphologic liver sample examination. After development of pathologic process, i.e. in 4 weeks after the DMNA introduction onset, all animals were randomized in 4 groups of 12 animals in each. […] The agents were introduced every other day intramuscularly, in femur muscle.

hepatitis B virus (HBV) [3] = experiment: Efficacy study in chronic viral hepatitis B, 62 patients (Tables 47-49); assay type: in vivo, human; conditions: month 1 (after treatment)
Source text: State of patient upon completion of treatment.

hepatitis B virus (HBV) [4] = experiment: as above; assay type: in vivo, human
[5] = month 2 (1 month after treatment)
[6] = month 4 (3 months after treatment)
[7] = 100 μg/ml, 100 pg M13 phage DNA
[8] = 100 μg/ml, 200 pg M13 phage DNA
[9] = compared with GSSG-I and GSSG-IMP
[10] = 100 μg/ml, 500 pg M13 phage DNA
[11] = 100 μg/ml, 800 pg M13 phage DNA

Question: Which results are given for `Nc1ccn([C@H]2CC[C@@H](CO)O2)c(=O)n1` [Hivid]?
Answer: ALT in Chronic HCV Infection (hepatitis C virus (HCV); Baseline (before treatment)): 187.5 ± 48.4 U/L; ALT in Chronic HCV Infection (hepatitis C virus (HCV); month 1 (after treatment)): **190 ± 71.1 U/L; ALT in Chronic HCV Infection (hepatitis C virus (HCV); [5]): **153 ± 25.3 U/L; ALT in Chronic HCV Infection (hepatitis C virus (HCV); [6]): **151 ± 25.2 U/L

Question: Which results are given for `N[C@@H](CCC(=O)N[C@@H](CSSC[C@H](NC(=O)CC[C@H](NP(=O)(O)OC[C@H]1O[C@@H](n2ccc(=O)[nH]c2=O)[C@H](O)[C@@H]1O)C(=O)O)C(=O)NCC(=O)[O-])C(=O)NCC(=O)[O-])C(=O)O.[Na+].[Na+]` [GSSG-UMP]?
Answer: Radioactive fraction, high-molecular (ATP-ase/helicase; 10 μg/ml, 5 pg M13 phage DNA): 16 ± 1/; Radioactive fraction, low-molecular (ATP-ase/helicase; 10 μg/ml, 5 pg M13 phage DNA): 84 ± 5; Radioactive fraction, high-molecular (ATP-ase/helicase; 10 μg/ml, 20 pg M13 phage DNA): 20 ± 2/; Radioactive fraction, low-molecular (ATP-ase/helicase; 10 μg/ml, 20 pg M13 phage DNA): 80 ± 5; Radioactive fraction, high-molecular (ATP-ase/helicase; 10 μg/ml, 50 pg M13 phage DNA): 41 ± 32/; Radioactive fraction, low-molecular (ATP-ase/helicase; 10 μg/ml, 50 pg M13 phage DNA): 59 ± 5; Radioactive fraction, high-molecular (ATP-ase/helicase; 10 μg/ml, 100 pg M13 phage DNA): 72 ± 4.5/; Radioactive fraction, low-molecular (ATP-ase/helicase; 10 μg/ml, 100 pg M13 phage DNA): 28 ± 2.5; Radioactive fraction, high-molecular (ATP-ase/helicase; 10 μg/ml, 200 pg M13 phage DNA): 92 ± 7/; Radioactive fraction, low-molecular (ATP-ase/helicase; 10 μg/ml, 200 pg M13 phage DNA): 8 ± 2; Radioactive fraction, high-molecular (ATP-ase/helicase; 50 μg/ml, 5 pg M13 phage DNA): 32.5 ± 1.5*/; Radioactive fraction, low-molecular (ATP-ase/helicase; 50 μg/ml, 5 pg M13 phage DNA): 67.5 ± 5.5; Radioactive fraction, high-molecular (ATP-ase/helicase; 50 μg/ml, 20 pg M13 phage DNA): 37.5 ± 2.5*/; Radioactive fraction, low-molecular (ATP-ase/helicase; 50 μg/ml, 20 pg M13 phage DNA): 62.5 ± 5.5; Radioactive fraction, high-molecular (ATP-ase/helicase; 50 μg/ml, 50 pg M13 phage DNA): 59 ± 5*/; Radioactive fraction, low-molecular (ATP-ase/helicase; 50 μg/ml, 50 pg M13 phage DNA): 41 ± 4; Radioactive fraction, high-molecular (ATP-ase/helicase; 50 μg/ml, 100 pg M13 phage DNA): 80 ± 6/; Radioactive fraction, low-molecular (ATP-ase/helicase; 50 μg/ml, 100 pg M13 phage DNA): 20 ± 3.5; Radioactive fraction, high-molecular (ATP-ase/helicase; 50 μg/ml, 200 pg M13 phage DNA): 90.5 ± 6/; Radioactive fraction, low-molecular (ATP-ase/helicase; 50 μg/ml, 200 pg M13 phage DNA): 9.5 ± 1.5; Radioactive fraction, high-molecular (ATP-ase/helicase; 100 μg/ml, 5 pg M13 phage DNA): 42 ± 3*/; Radioactive fraction, low-molecular (ATP-ase/helicase; 100 μg/ml, 5 pg M13 phage DNA): 58 ± 4; Radioactive fraction, high-molecular (ATP-ase/helicase; 100 μg/ml, 20 pg M13 phage DNA): 49.5 ± 4*/; Radioactive fraction, low-molecular (ATP-ase/helicase; 100 μg/ml, 20 pg M13 phage DNA): 50.5 ± 5; Radioactive fraction, high-molecular (ATP-ase/helicase; 100 μg/ml, 50 pg M13 phage DNA): 67 ± 5*/; Radioactive fraction, low-molecular (ATP-ase/helicase; 100 μg/ml, 50 pg M13 phage DNA): 33 ± 3.5; Radioactive fraction, high-molecular (ATP-ase/helicase; [7]): 84 ± 6.5/; Radioactive fraction, low-molecular (ATP-ase/helicase; [7]): 16 ± 1.5; Radioactive fraction, high-molecular (ATP-ase/helicase; [8]): 92.5 ± 8/; Radioactive fraction, low-molecular (ATP-ase/helicase; [8]): 7.5 ± 2; Relative inhibition of ATP-ase/helicase activity (ATP-ase/helicase; [9]): inhibits ATP-ase/helicase activity most of all; Radioactive fraction, high-molecular ([1]; 10 μg/ml, 20 pg M13 phage DNA): 16 ± 1/; Radioactive fraction, low-molecular ([1]; 10 μg/ml, 20 pg M13 phage DNA): 84 ± 5; Radioactive fraction, high-molecular ([1]; 10 μg/ml, 50 pg M13 phage DNA): 17.5 ± 1.5/; Radioactive fraction, low-molecular ([1]; 10 μg/ml, 50 pg M13 phage DNA): 82.5 ± 8.5; Radioactive fraction, high-molecular ([1]; 10 μg/ml, 200 pg M13 phage DNA): 45 ± 4/; Radioactive fraction, low-molecular ([1]; 10 μg/ml, 200 pg M13 phage DNA): 55 ± 5; Radioactive fraction, high-molecular ([1]; 10 μg/ml, 500 pg M13 phage DNA): 73.5 ± 5.5/; Radioactive fraction, low-molecular ([1]; 10 μg/ml, 500 pg M13 phage DNA): 27.5 ± 1.5; Radioactive fraction, high-molecular ([1]; 10 μg/ml, 800 pg M13 phage DNA): 92.0 ± 5/; Radioactive fraction, low-molecular ([1]; 10 μg/ml, 800 pg M13 phage DNA): 8 ± 1; Radioactive fraction, high-molecular ([1]; 50 μg/ml, 20 pg M13 phage DNA): 32 ± 2.5*/; Radioactive fraction, low-molecular ([1]; 50 μg/ml, 20 pg M13 phage DNA): 78 ± 7; Radioactive fraction, high-molecular ([1]; 50 μg/ml, 50 pg M13 phage DNA): 34 ± 3*/; Radioactive fraction, low-molecular ([1]; 50 μg/ml, 50 pg M13 phage DNA): 66 ± 7; Radioactive fraction, high-molecular ([1]; 50 μg/ml, 200 pg M13 phage DNA): 51 ± 4/; Radioactive fraction, low-molecular ([1]; 50 μg/ml, 200 pg M13 phage DNA): 49 ± 5; Radioactive fraction, high-molecular ([1]; 50 μg/ml, 500 pg M13 phage DNA): 74 ± 5/; Radioactive fraction, low-molecular ([1]; 50 μg/ml, 500 pg M13 phage DNA): 26 ± 2; Radioactive fraction, high-molecular ([1]; 50 μg/ml, 800 pg M13 phage DNA): 92.5 ± 6.5/; Radioactive fraction, low-molecular ([1]; 50 μg/ml, 800 pg M13 phage DNA): 7.5 ± 1; Radioactive fraction, high-molecular ([1]; 100 μg/ml, 20 pg M13 phage DNA): 36 ± 2*/; Radioactive fraction, low-molecular ([1]; 100 μg/ml, 20 pg M13 phage DNA): 64 ± 5; Radioactive fraction, high-molecular ([1]; 100 μg/ml, 50 pg M13 phage DNA): 41 ± 4*/; Radioactive fraction, low-molecular ([1]; 100 μg/ml, 50 pg M13 phage DNA): 59 ± 6; Radioactive fraction, high-molecular [1, 8]: 57.5 ± 7.5*/; Radioactive fraction, low-molecular [1, 8]: 42.5 ± 3.5; Radioactive fraction, high-molecular [1, 10]: 75.5 ± 6.5/; Radioactive fraction, low-molecular [1, 10]: 24.5 ± 3.5; Radioactive fraction, high-molecular [1, 11]: 92.5 ± 6.5/; Radioactive fraction, low-molecular [1, 11]: 7.5 ± 1; Relative inhibition of ATP-ase/helicase activity [1, 9]: maximal inhibitory effect

Question: Which Rat weight ([2]; 1 treatment week) does the source give for `C[S+](CC[C@H](N)C(=O)[O-])C[C@H]1O[C@@H](n2cnc3c(N)ncnc32)[C@H](O)[C@@H]1O` (stereo partly drawn) [Heptral, S-adenosyl-methionine] here?
Answer: Its Rat weight is 191.0 g.

Question: And the Rat weight ([2]; 3 treatment weeks)?
Answer: Its Rat weight is 212 g.

Question: What about the “Relative square of the connective tissue in a liver section” value ([2]; 3 weeks after cirrhosis modeling completion) of the same molecule?
Answer: Its value is 8.215 ± 0.751%.

Question: And the “Collagen amount lowered comparing to the normal saline control (times)” value ([2]; 6-week dosing)?
Answer: Its value is 1.7 times.

Question: And the Rat weight ([2]; 6 treatment weeks)?
Answer: The Rat weight was 232 g.

Question: And the “Relative square of the connective tissue in a liver section” value ([2]; 6 weeks after cirrhosis modeling completion)?
Answer: Its value is 7.781 ± 0.943 %.

Question: What about the “Decrease of liver fibrosis-formation rate” value ([2]; comparison agent) of the same molecule?
Answer: The value was 35%.

Question: What about the “Collagen amount lowered comparing to the normal saline control (times)” value ([2]; treatment for 3 weeks) of the same molecule?
Answer: Its value is 1.1 times.

Question: What does the source list for `Cc1cn([C@H]2C[C@H](N=[N+]=[N-])[C@@H](CO)O2)c(=O)[nH]c1=O` [Zidovudine]?
Answer: PCR (%) in Chronic HCV Infection (hepatitis C virus (HCV); Baseline (before treatment)): 100%; PCR (%) in Chronic HCV Infection (hepatitis C virus (HCV); month 1 (after treatment)): **54.5* %; PCR (%) in Chronic HCV Infection (hepatitis C virus (HCV); [5]): **63.6* %; PCR (%) in Chronic HCV Infection (hepatitis C virus (HCV); [6]): **59.1* %

Question: What does the source list for `CC(=O)OCC(CCn1cnc2cnc(N)nc21)COC(C)=O` [Famvir]?
Answer: ALT in Chronic HBV Infection (hepatitis B virus (HBV) [3]): **70.2 ± 9.1 U/L; HbsAg in Chronic HBV Infection (hepatitis B virus (HBV) [3]): **150.5 ± 10.43 ng/mL; PCR (%) in Chronic HBV Infection (hepatitis B virus (HBV) [3]): **50.0* %; ALT in Chronic HBV Infection (hepatitis B virus (HBV) [4]; Baseline (before treatment)): 165.7 ± 13.8 U/L; HbsAg in Chronic HBV Infection (hepatitis B virus (HBV) [4]; Baseline (before treatment)): 157.8 ± 8.84 ng/mL; PCR (%) in Chronic HBV Infection (hepatitis B virus (HBV) [4]; Baseline (before treatment)): 100%; ALT in Chronic HBV Infection (hepatitis B virus (HBV) [4]; [5]): **75.9 ± 9.6 U/L; HbsAg in Chronic HBV Infection (hepatitis B virus (HBV) [4]; [5]): **153.5 ± 10.14 ng/mL; PCR (%) in Chronic HBV Infection (hepatitis B virus (HBV) [4]; [5]): **60.0%; ALT in Chronic HBV Infection (hepatitis B virus (HBV) [4]; [6]): **77.9 ± 10.2 U/L; HbsAg in Chronic HBV Infection (hepatitis B virus (HBV) [4]; [6]): **132.5 ± 43.76 ng/mL; PCR (%) in Chronic HBV Infection (hepatitis B virus (HBV) [4]; [6]): **20.0%
